# Data as given in patent US4916122A, “3'-Azido-2',3'-dideoxyuridine anti-retroviral composition” (University of Georgia Research Foundation, Inc., priority 1987, dated 1990).
# Where two headings read alike, the source gives them in different places.
# Tests used:
# sarcoma 180 cells = conditions: in vitro; Lin et al.; cited from earlier work
# [1] = tested on: Mouse ecotropic (Cas-Br-M); test: Median effective antiviral concentration against mouse ecotropic virus (Table 5); type: cell-based, murine retrovirus; conditions: unidentified retrovirus
# From the text: A comparison of the differences in median effective an tiviral concentrations between human, non-human primate, and murine retroviruses is shown in Table 5. […] A further comparison of the activity of several nucleoside analogues, including CS-87, against HIV-1 and SIV in human PBM cells is shown in FIG. 6. The effect of delayed treatment with AZT, CS-87 or CS-91 on the replication of HIV-1 and SIV in human PBM cells is shown in FIGS. 7a, b, and c.
# HIV-1 = test: microbe, parasite or virus in culture; conditions: Human immunodeficiency virus 1, PBMC, read-out: PBM (EC50)
# reovirus-1 = conditions: Colla et al.; cited from earlier work
# Coxsackie virus B4 = conditions: Colla et al.; cited from earlier work
# in vivo = test: in vivo; parameters: species or system mouse; conditions: mice, 250 mg/kg iv
# Experimental: In rhesus monkeys, the pharmocokinetic parameters after an oral dose of […] of CS-87 are as follows:
# ^a Mice were administered the drug at a dose of 250 mg/kg iv.
# HIV-1 (Strain RF-II) = test: Antiviral activity against HIV-1 in HeLa-T4 cells (Table 4); type: cell-based
# Experimental: Evaluation in Hela-T4 cells infected with HIV-1 (Strain RF-II)
# HeLa-T4 cells (described in Cell 47: 333, 1986) are maintained in Dulbecco's Modified Eagle medium containing 10% inactivated fetal calf serum, penicillin (100 U/ml) and streptomycin (100 μg/ml), and the antibiotic G418 (1 mg/ml). The cells are seeded onto a 96-well plate (2×10^4 cells/well per 0.1 ml), and two days later, the supernatant is removed and the virus added. After adsorption for 45 minutes, the inoculum is removed and the cells washed with phosphate-buffered saline (pH 7.2). The compounds at different concentration are then added in maintenance medium (containing 2% serum). […] The cells are fixed with a mixture of 5% glacial acetic acid/95% Ethanol for 15 minutes, and then stained with Giemsa (20% in PSB) for 4 hours. The plates are then washed and dried. The foci are then enumerated with a dissecting stereomicroscope.
# HIV (LAV-1) = test: Median effective antiviral concentration against HIV (Table 5); type: cell-based; conditions: HIV (LAV-1) vs Friend (EY-10) or Cas-Br-M
smiles,measurement,setting,value
"[N-]=[N+]=N[C@H]1C[C@H](n2ccc(=O)[nH]c2=O)O[C@@H]1CO [CS-87, 3'-azido-2',3'-dideoxyuridine]",activity against sarcoma 180 cells,sarcoma 180 cells,inactive
same,EC50,[1],9100 nM
same,EC50,HIV-1,180 nM
same,activity against reovirus-1,reovirus-1,inactive
same,activity against Coxsackie virus B4,Coxsackie virus B4,inactive
same,Ratio: % B/S,in vivo; 5 min,6.3%
same,Serum levels,in vivo; 5 min,125700 ng/mL
same,Kp at 5 min,"in vivo; mouse, in vivo, iv, 250 mg/kg, 5 min, read-out: Ratio: % B/S",0.043
same,concentration at 5 min,"in vivo; mouse, in vivo, iv, 250 mg/kg, 5 min, read-out: Serum levels",71300 ng/mL
same,concentration at 31 min,"in vivo; mouse, in vivo, iv, 250 mg/kg, 31 min, read-out: Brain levels",11100 ng/mL
same,Kp at 31 min,"in vivo; mouse, in vivo, iv, 250 mg/kg, 31 min, read-out: Ratio: % B/S",0.122
same,concentration at 31 min,"in vivo; mouse, in vivo, iv, 250 mg/kg, 31 min, read-out: Serum levels",91000 ng/mL
same,concentration at 34 min,"in vivo; mouse, in vivo, iv, 250 mg/kg, 34 min, read-out: Brain levels",5670 ng/mL
same,Kp at 34 min,"in vivo; mouse, in vivo, iv, 250 mg/kg, 34 min, read-out: Ratio: % B/S",0.102
same,concentration at 34 min,"in vivo; mouse, in vivo, iv, 250 mg/kg, 34 min, read-out: Serum levels",55500 ng/mL
same,concentration at 71 min,"in vivo; mouse, in vivo, iv, 250 mg/kg, 71 min, read-out: Brain levels",6400 ng/mL
same,Kp at 71 min,"in vivo; mouse, in vivo, iv, 250 mg/kg, 71 min, read-out: Ratio: % B/S",0.261
same,concentration at 71 min,"in vivo; mouse, in vivo, iv, 250 mg/kg, 71 min, read-out: Serum levels",24500 ng/mL
same,concentration at 1.2 h,"in vivo; mouse, in vivo, iv, 250 mg/kg, 72 min, read-out: Brain levels",7330 ng/mL
same,Kp at 1.2 h,"in vivo; mouse, in vivo, iv, 250 mg/kg, 72 min, read-out: Ratio: % B/S",0.134
same,concentration at 1.2 h,"in vivo; mouse, in vivo, iv, 250 mg/kg, 72 min, read-out: Serum levels",54800 ng/mL
same,activity compared to d2C in HeLa-T4 cells,HIV-1 (Strain RF-II),less active
same,EC50,"HIV-1 (Strain RF-II); Human immunodeficiency virus 1, HeLaT4, HIV-1",1240 nM
same,effectiveness against HIV (LAV-1) compared with Friend or mouse ecotropic virus,HIV (LAV-1),much more effective
